What was measured:
[1] = tested on: detached leaves of Buddleja davidii; experiment: Persistence of the mixture at the foliar surface; conditions: 1% with 0.1% colorant; rinses with water
Protocol: The effect of the invention on the persistence of the mixture was evaluated after spraying a solution colored blue on detached leaves of Buddleja davidii.
After spraying, the leaves are left at ambient temperature until the sprayed solution has evaporated.
Next, several operations of rinsing the leaves with water are carried out. The rinse water is collected after each rinse and photographs are taken to observe and compare the coloration of the rinse waters. An absorbance measurement at 630 nm is also carried out by spectrophotometry.

[2] = tested on: flat-leaf parsley variety NOVAS; experiment: Root growth, assays in fields; type: in vivo, Petroselinum crispum var. neapolitanum; conditions: seeds immersed 1 h in 2.5% solution; 12 weeks after sowing
Protocol: In order to test the effect of the invention in conditions of crops in fields, the flat-leaf parsley variety NOVAS (Petroselinum crispum var. neapolitanum) is used.
The seeds are next dried in a heating tunnel at 45° C. for 1 h.
The seeds are mechanically sown (seeder) on strips of four rows each one beside the other to limit as much as possible the variations in soil quality, insulation and temperature. 12 weeks after sowing, 25 parsley plants were taken in order to measure several parameters of the roots: their weight, their length, and their diameter.

Septoria leaf spot = experiment: Reduction of phytosanitary products on wheat; type: in vivo, soft winter wheat (GARCIA variety); conditions: 25% of recommended dose (0.15 L/ha Priaxor + 0.15 L/ha Reimer Pro) plus 3 L/ha sucrose stearate; start of coming into ear
Protocol: Assays in a climate-controlled chamber were carried out on soft winter wheat (GARCIA variety, Arvalis). The wheat was sowed in containers of 1 meter by 1 meter. […] Priaxor® comprises two active ingredients: fluxapyroxad (belonging to the SDHI family) and pyraclostrobin (belonging to the strobilurin family) and Reimer® Pro comprises the active ingredient metconazole (belonging to the triazole family).
The containers were then taken out of the climate-controlled chamber and disposed near a field having more than 50% of wheat plants diseased with Septoria leaf spot. After 1 day, the containers were placed back in the climate-controlled chamber under controlled conditions.

[3] = tested on: detached leaves of Buddleja davidii; experiment: Stickiness of a solution on the leaf (washing off); conditions: 2.5% with 3% titanium dioxide; washed with 14 g water
Excerpt: A solution is applied by spraying on detached leaves of Buddleja davidii disposed flat on a support.
The leaves were next left at ambient temperature until the sprayed solutions had completely evaporated.
14 grams of water are next sprayed onto the leaves held vertical to simulate rain. The titanium residues on the leaf are next observed.

Q: Which “persistence of the mixture on rinsing” value [1] does the source give for sucrose stearate here?
A: still present even after the 4th rinse

Q: What about the “diameter of the taproot, on average greater than the control” value [2] of the same substance?
A: 30%

Q: What about the “roots with a length of more than 10 cm” value [2] of the same substance?
A: 74%

Q: And the “weight of the taproot, on average greater than the control” value [2]?
A: 70%

Q: And the “plants diseased with Septoria leaf spot” value (Septoria leaf spot)?
A: 20%

Q: And the “titanium dioxide residue on the leaf after washing” value [3]?
A: still clearly visible

From patent publication US20200236933A1, “USE OF A NON-IONIC SURFACTANT WHICH IS A POLYOL DERIVATIVE AS A PLANT GROWTH STIMULATING AGENT OR AS AN ADJUVANT” (priority 2017, published 2020)
